The text below walks through data of ChEMBL document CHEMBL5131389, “PSMA-targeted small-molecule docetaxel conjugate: Synthesis and preclinical evaluation” (Eur J Med Chem, 2022).

Structures are written as SMILES.

Data set [1] has as its system CWR22R. As to the kind of experiment: Antitumor activity against human 22Rv1 cells xenografted in Balb/c nude mouse assessed as tumor growth inhibition at 30 mg/kg, ip administered daily for 5 days and measured at day 34 relative to control. Also on record: scale not given: the % may be the effect or the level left. The settings on record: time 34 day. Type of data set: functional. (Xenograft models place foreign cells or tissue in a host animal.)

Data set [2] can be described thus: Chronic toxicity in rat assessed as change in relative density of urine at 22.5 mg/kg, iv administered as pluronic F127 formulation at 4 intervals for 21 days and observed 3 weeks post last injection. It is filed as organism-based. To be noted: in vivo, 2544 h, time 106 day.
Data set [3] in a line: Acute toxicity in ICR mouse assessed as decrease in body weight administered intravenously as pluronic F127 formulation and measured for 14 days. The settings on record: in vivo, iv, 336 h, dose 183-960 mg/kg, time 14 day.
Data set [4] is described as follows: Chronic toxicity in rat assessed as change in relative heart mass at 15 to 18.75 mg/kg, iv administered as pluronic F127 formulation for 4 intervals of 21 days and observed 3 weeks post last injection relative to control. Type of data set: organism-based. To be noted: in vivo, 2544 h, dose 15-18.75 mg/kg, time 106 day.
The nature of data set [5]: Chronic toxicity in Soviet Chinchilla rabbit assessed as urine alkalization at 10.17 to 12.21 mg/kg, iv administered as pluronic F127 formulation at 4 intervals for 21 days and observed 3 weeks post last injection. Type of data set: organism-based, Oryctolagus cuniculus. To be noted: in vivo, 2544 h, dose 10.17-12.21 mg/kg, time 106 day.
Data set [6] is described as follows: Chronic toxicity in rat assessed as hair loss at 22.5 mg/kg, iv administered as pluronic F127 formulation at 4 intervals for 21 days and observed 3 weeks post last injection. To be noted: in vivo, 2544 h, time 106 day. It is filed as organism-based.
Data set [7] has as its system DU-145. As to the kind of experiment: Antitumor activity against human DU-145 cells xenografted in BALB/c nude mouse assessed as tumor growth inhibition at 60 mg/kg, ip measured upto 30 days. To be noted: DU-145, 720 h, time <= 30 day, read-out: TGI. Type of data set: functional.
A short description of data set [8]: AUC (0 to t) in Albino Wistar rat at 15 mg/kg, iv administered as pluronic F127 formulation measured upto 72 hrs by high-performance liquid chromatography tandem mass spectrometric analysis. Also noted: dose 15 mg/kg, time < 72 hrs, route iv. Type of data set: ADME, organism-based. The settings on record: in vivo.
Data set [9] in a line: Stability of the compound in pH 7.4 buffer measured upto 96 hrs by LC-MS based mass spectrometric analysis. The settings on record: pH 7.4, 96 h. Type of data set: physicochemical.
Data set [10] can be described thus: Acute toxicity in ICR mouse assessed as animal death at 183 to 960 mg/kg, iv administered for 14 days as pluronic F127 formulation and measured after 5 days. Type of data set: organism-based. The settings on record: in vivo, 456 h, dose 183-960 mg/kg, time 19 day.

Broadly, the AUC(0-t) is the area under the concentration-time curve up to a stated or last time point. As to `CC(=O)O[C@@]12CO[C@@H]1C[C@H](O)[C@@]1(C)C(=O)[C@H](O)C3=C(C)[C@@H](OC(=O)[C@H](OC(=O)CCCc4cn(CCCNC(=O)[C@H](Cc5ccc(O)cc5)NC(=O)[C@H](Cc5ccccc5)NC(=O)CCC(=O)NCCCCCC(=O)N(CCCC[C@H](NC(=O)N[C@@H](CCC(=O)O)C(=O)O)C(=O)O)Cc5cccc(Cl)c5)nn4)[C@@H](NC(=O)OC(C)(C)C)c4ccccc4)C[C@@](O)([C@@H](OC(=O)c4ccccc4)[C@H]21)C3(C)C`, the Activity was 80% in [1]; “Toxic” in data set [2]; “Toxic” in [3]; “Toxic” in data set [4]; “Toxic” in data set [5]; “Toxic” in data set [6]. In addition, the Activity result in data set [10] is reported as “Toxic”. The inhibition in vivo at 60 mg/kg in data set [7] worked out at 83.7%. The molecule also showed an AUC(0-t) at 72 h in data set [8] of 28000 ng·h/mL. For the same molecule, the Stability entry in [9] was “Unstable”.
